For assay [1], the target named is Beta Secretase enzyme (BACE) (Homo sapiens, UniProt P56817). The assay can be described thus: In vitro enzymatic BACE FRET (fluorescence resonance energy transfer) assay. In kind it is biochemical. Conditions: average IC50, enzyme assay; read-out: BACE 1 FRET assay. The gist of the method:
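Fluorescence read after Tris quench to neutral pH. Reaction: 50 nM fluorophore/quencher peptide substrate, 1 h, in 0.05 M acetate pH 4.2, 10% DMSO final, 100 uM genapol.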

For assay [2], the system named is Aβ40 in conditioned medium of cells stably expressing Amyloid Precursor Protein (APP). The assay can be described thus: In vitro BACE cell-based assay (Aβ40 in conditioned medium, sandwich ELISA). To be noted: Homo sapiens, read-out: HEK cell assay. Put shortly: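 Quantification relied on pAb40/6E10 sandwich ELISA with Europium fluorescence counts, and IC50 was fitted versus concentration.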

Where [3] appears, read: HEK293, average IC50, HEK cells.

Where two headings read alike, the source gives them in different places.

Chain of Beta Secretase enzyme (BACE) (P56817 46-501, species assumed): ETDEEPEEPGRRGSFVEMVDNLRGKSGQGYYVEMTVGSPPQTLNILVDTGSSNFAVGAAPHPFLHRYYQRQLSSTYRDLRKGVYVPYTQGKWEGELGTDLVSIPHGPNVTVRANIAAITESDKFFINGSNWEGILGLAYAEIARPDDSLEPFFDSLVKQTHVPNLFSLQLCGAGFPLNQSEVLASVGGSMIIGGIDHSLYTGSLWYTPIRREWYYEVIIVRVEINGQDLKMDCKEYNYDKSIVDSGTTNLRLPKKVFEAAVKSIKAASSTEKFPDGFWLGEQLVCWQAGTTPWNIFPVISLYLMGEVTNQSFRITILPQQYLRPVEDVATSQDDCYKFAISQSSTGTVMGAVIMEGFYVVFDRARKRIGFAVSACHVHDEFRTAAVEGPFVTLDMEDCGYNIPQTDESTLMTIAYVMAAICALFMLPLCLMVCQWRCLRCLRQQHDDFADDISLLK

For the molecule `NC1=N[C@@]2(CO1)c1cc(-c3cccnc3F)ccc1Oc1cnc(-c3ccnc(O)c3)cc12` [Example 842, 4-((5S)-2′-amino-7-(2-fluoro-3-pyridinyl)spiro[chromeno[2,3-c]pyridine-5,4′-[1,3]oxazol]-3-yl)-2-pyridinol], the IC50 in assay [1] stood at 25.9 nM; in assay [2] (HEK293, average IC50) it was 2560 nM.

With `COc1ccc(F)c(-c2ccc3c(c2)[C@@]2(COC(N)=N2)c2cc(N4CCOC(C)(C)C4)cnc2O3)c1` [Example 481, (5S)-3-(2,2-dimethyl-4-morpholinyl)-7-(2-fluoro-5-methoxyphenyl)spiro[chromeno[2,3-b]pyridine-5,4′-[1,3]oxazol]-2′-amine], the IC50 in assay [1] was 2.7 nM; in assay [2] (setting [3]) it was 19.2 nM.

As for `COC(C)(C)C#Cc1ccc2c(c1)[C@@]1(CSC(N)=N1)c1cc(-c3cccnc3)cnc1O2` [Example 671, (5S)-7-(3-methoxy-3-methyl-1-butyn-1-yl)-3-(3-pyridinyl)spiro[chromeno[2,3-b]pyridine-5,4′-[1,3]thiazol]-2′-amine], the IC50 in assay [1] stood at 19 nM; in assay [2] (setting [3]), 140 nM.

Consider `CC1(C#Cc2cnc3c(c2)[C@]2(CSC(N)=N2)c2cc(-c4cnccc4F)ccc2O3)COC1` [Example 727, (5S)-7-(4-fluoro-3-pyridinyl)-3-((3-methyl-3-oxetanyl)ethynyl)spiro[chromeno[2,3-b]pyridine-5,4′-[1,3]thiazol]-2′-amine], for which the IC50 in assay [1] worked out at 4.1 nM; in assay [2] (HEK293, average IC50), 128 nM.

As for `NC1=N[C@@]2(CO1)c1cc(-c3ccc(F)nc3)ccc1Oc1c(F)cc(OCC3CCOCC3)cc12` [Example 258, (4S)-4′-fluoro-7′-(6-fluoro-3-pyridinyl)-2′-(tetrahydro-2H-pyran-4-ylmethoxy)spiro[1,3-oxazole-4,9′-xanthen]-2-amine], the IC50 in assay [1] was determined as 6 nM; in assay [2] (HEK293, average IC50), 30.4 nM.

In the case of `NC1=N[C@@]2(CO1)c1cc(-c3cncc(F)c3)ccc1Oc1c(F)cc(C3CCOCC3)cc12` [Example 448, (4S)-4′-fluoro-7′-(5-fluoro-3-pyridinyl)-2′-(tetrahydro-2H-pyran-4-yl)spiro[1,3-oxazole-4,9′-xanthen]-2-amine], the IC50 in assay [1] was 2.4 nM; in assay [2] (setting [3]) it was 7.7 nM.

For `COc1cc(F)c2c(c1)[C@@]1(CSC(N)=N1)c1cc(-c3cnccn3)ccc1O2` [Example 222, (4R)-4′-fluoro-2′-methoxy-7′-(2-pyrazinyl)spiro[1,3-thiazole-4,9′-xanthen]-2-amine], the IC50 was determined as 41.4 nM in assay [1] and 1080 nM in assay [2] (HEK293, average IC50).

In the case of `COc1nc(Cl)cc2c1Oc1ccc(-c3cccnc3)cc1[C@@]21COC(N)=N1` [Example 830, (5S)-3-chloro-1-methoxy-7-(3-pyridinyl)spiro[chromeno[2,3-c]pyridine-5,4′-[1,3]oxazol]-2′-amine], the IC50 in assay [1] is 469 nM; in assay [2] (HEK293, average IC50), ≥ 10000 nM.

In the case of `NC1=N[C@@]2(CO1)c1cc(-c3cnccn3)ccc1Oc1c(F)cc(OCC3CCOCC3)cc12` [Example 270, (4S)-4′-fluoro-7′-(2-pyrazinyl)-2′-(tetrahydro-2H-pyran-4-ylmethoxy)spiro[1,3-oxazole-4,9′-xanthen]-2-amine], the IC50 amounted to 5.4 nM in assay [1] and 33.6 nM in assay [2] (HEK293, average IC50).

With `CC(C)(O)C#Cc1cncc(-c2ccc3c(c2)[C@@]2(COC(N)=N2)c2cc(-c4ccnc(F)c4)ncc2O3)c1` [Example 817, 4-(5-((5S)-2′-amino-3-(2-fluoro-4-pyridinyl)spiro[chromeno[2,3-c]pyridine-5,4′-[1,3]oxazol]-7-yl)-3-pyridinyl)-2-methyl-3-butyn-2-ol], the IC50 was 13.5 nM in assay [1] and 1480 nM in assay [2] (HEK293, average IC50).

For the molecule `CC1(C#Cc2cc3c(cn2)Oc2ccc(-c4cccc(C#N)c4)cc2[C@@]32COC(N)=N2)COC1` [Example 164, 3-((5S)-2′-amino-3-((3-methyl-3-oxetanyl)ethynyl)spiro[chromeno[2,3-c]pyridine-5,4′-[1,3]oxazol]-7-yl)benzonitrile], the IC50 was determined as 2.3 nM in assay [1] and 18.9 nM in assay [2] (HEK293, average IC50).

With `CC1(C)CC(c2cc3c(c(F)n2)Oc2ccc(-c4cccnc4F)cc2[C@]32CSC(N)=N2)=CCO1` [Example 1036, (5R)-3-(2,2-dimethyl-3,6-dihydro-2H-pyran-4-yl)-1-fluoro-7-(2-fluoro-3-pyridinyl)spiro[chromeno[2,3-c]pyridine-5,4′-[1,3]thiazol]-2′-amine], the IC50 in assay [1] was found to be 2 nM; in assay [2] (HEK293, average IC50) it was 120 nM.

With `C[C@@H]1CN(c2cc(F)c3c(c2)[C@]2(COC(N)=N2)c2cc(-c4cnccn4)ccc2O3)C[C@H](C)O1` [Example 94, (S)-2′-((2R,6S)-2,6-dimethylmorpholino)-4′-fluoro-7′-(pyrazin-2-yl)-5H-spiro[oxazole-4,9′-xanthen]-2-amine], the IC50 in assay [1] was 6.3 nM; in assay [2] (HEK293, average IC50) it was 19.7 nM.

`CC1(C#Cc2cnc3c(c2)[C@@]2(COC(N)=N2)c2cc(-c4cncc(F)c4)c(F)cc2O3)COC1` [Example 624, (5R)-8-fluoro-7-(5-fluoro-3-pyridinyl)-3-((3-methyl-3-oxetanyl)ethynyl)spiro[chromeno[2,3-b]pyridine-5,4′-[1,3]oxazol]-2′-amine]: the IC50 stood at 986 nM in assay [1] and 762 nM in assay [2] (setting [3]).

With `NC1=N[C@@]2(CO1)c1cc(-c3cnccc3F)c(F)cc1Oc1ncc(C3=CCOCC3)cc12` [Example 646, (5S)-3-(3,6-dihydro-2H-pyran-4-yl)-8-fluoro-7-(4-fluoro-3-pyridinyl)spiro[chromeno[2,3-b]pyridine-5,4′-[1,3]oxazol]-2′-amine], the figures for the IC50 in assay [1] and in assay [2] (setting [3]) were 2.2 nM and 16 nM, respectively.

`CC1(C#Cc2cnc3c(c2)[C@@]2(COC(N)=N2)c2c(ccc(-c4ccc(F)nc4)c2F)O3)COC1` [Example 343, (5S)-6-fluoro-7-(6-fluoro-3-pyridinyl)-3-((3-methyl-3-oxetanyl)ethynyl)spiro[chromeno[2,3-b]pyridine-5,4′-[1,3]oxazol]-2′-amine]: the IC50 in assay [1] was found to be 391 nM; in assay [2] (HEK293, average IC50) it was 1840 nM.

Consider `NC1=N[C@@]2(CS1)c1cc(-c3cccnc3F)ccc1Oc1cnc(N3CCC(F)(F)CC3)cc12` [Example 933, (5S)-3-(4,4-difluoro-1-piperidinyl)-7-(2-fluoro-3-pyridinyl)spiro[chromeno[2,3-c]pyridine-5,4′-[1,3]thiazol]-2′-amine], for which the figures for the IC50 in assay [1] and in assay [2] (setting [3]) were 0.5 nM and 33 nM, respectively.

For `C[Si](C)(C)c1cc2c(nc1F)Oc1ccc(-c3cccnc3F)cc1[C@@]21COC(N)=N1` [Example 146, (5S)-2-fluoro-7-(2-fluoro-3-pyridinyl)-3-(trimethylsilyl)spiro[chromeno[2,3-b]pyridine-5,4′-[1,3]oxazol]-2′-amine], the IC50 in assay [1] is 12.3 nM; in assay [2] (HEK293, average IC50), 169 nM.

Consider `CN(c1cc(F)c2c(c1)[C@]1(COC(N)=N1)c1cc(-c3cccnc3F)ccc1O2)C1COC1` [Example 854, (4S)-4′-fluoro-7′-(2-fluoro-3-pyridinyl)-N~2~′-methyl-N~2~′-3-oxetanylspiro[1,3-oxazole-4,9′-xanthene]-2,2′-diamine], for which the IC50 in assay [1] was 4.4 nM; in assay [2] (setting [3]) it was 17 nM.

With `NC1=N[C@@]2(CO1)c1cc(-c3c(F)ccnc3F)ccc1Oc1c(F)cc(-c3ncccn3)cc12` [Example 858, (4S)-7′-(2,4-difluoro-3-pyridinyl)-4′-fluoro-2′-(2-pyrimidinyl)spiro[1,3-oxazole-4,9′-xanthen]-2-amine], the IC50 in assay [1] is 0.5 nM; in assay [2] (setting [3]), 18 nM.

The values above are taken from patent US8883782B2, “Spiro-tetracyclic ring compounds as beta-secretase modulators and methods of use” (Amgen Inc., priority 2010, dated 2014).
